Test results: US5789431A, “Naphthoquinone antitumor compound and method” (The University of North Carolina at Chapel Hill, priority 1996, dated 1998)

Experiments:
KM 20L2 = experiment: in vitro colon cancer cell growth inhibition (NCI screen)
MALME-3M = experiment: in vitro melanoma cell growth inhibition (NCI screen)
SK-MEL-5 = experiment: as above
M19-MEL = experiment: as above
OVCAR-3 = experiment: in vitro ovarian cancer cell growth inhibition (NCI screen)
NCI-H522 = experiment: in vitro non-small cell lung cancer cell growth inhibition (NCI screen)
HL-60(TB) = experiment: in vitro leukemia cell growth inhibition (NCI screen)
HCT-116 = experiment: in vitro colon cancer cell growth inhibition (NCI screen)
human tumor cell lines = assay type: cell-based; conditions: cancer cell line panel
HCT-15 = experiment: in vitro colon cancer cell growth inhibition (NCI screen)
HT 29 = experiment: as above
UACC-62 = experiment: in vitro melanoma cell growth inhibition (NCI screen)
SK-MEL-2 = experiment: as above
SR = experiment: in vitro leukemia cell growth inhibition (NCI screen)
M14 = experiment: in vitro melanoma cell growth inhibition (NCI screen)
COLO-205 = experiment: in vitro colon cancer cell growth inhibition (NCI screen)
NCI-H460 = experiment: in vitro non-small cell lung cancer cell growth inhibition (NCI screen)
NCI-H23 = experiment: as above
RXF-393 = experiment: in vitro renal cancer cell growth inhibition (NCI screen)
OVCAR-4 = experiment: in vitro ovarian cancer cell growth inhibition (NCI screen); conditions: OVACR-4
PC-3 = experiment: in vitro prostate cancer cell growth inhibition (NCI screen)
HCC-2998 = experiment: in vitro colon cancer cell growth inhibition (NCI screen)
MCF7/ADR-RES = experiment: in vitro breast cancer cell growth inhibition (NCI screen)
MDA-N = experiment: as above
MOLT-4 = experiment: in vitro leukemia cell growth inhibition (NCI screen)
UACC-257 = experiment: in vitro melanoma cell growth inhibition (NCI screen)
MDA-MB-435 = experiment: in vitro breast cancer cell growth inhibition (NCI screen)
SW 620 = experiment: in vitro colon cancer cell growth inhibition (NCI screen)
OVCAR-8 = experiment: in vitro ovarian cancer cell growth inhibition (NCI screen)

SMILES | cytotoxicity log GI50 (KM 20L2) [M] | cytotoxicity log GI50 (MALME-3M) [M] | cytotoxicity log GI50 (SK-MEL-5) [M] | cytotoxicity log GI50 (M19-MEL) [M] | cytotoxicity log GI50 (OVCAR-3) [M] | cytotoxicity log GI50 (NCI-H522) [M] | cytotoxicity log GI50 (HL-60(TB)) [M] | cytotoxicity log GI50 (HCT-116) [M] | cytotoxicity log GI50 (HT 29) [M] | cytotoxicity log GI50 (UACC-62) [M] | cytotoxicity log GI50 (M14) [M] | cytotoxicity log GI50 (COLO-205) [M] | cytotoxicity log GI50 (NCI-H23) [M] | further results
CC(=O)NC1=C(NCCO)C(=O)c2ccccc2C1=O [Compound 40] | -4.62 | -4.89 | -4.53 | -5.01 | -4.72 | -4.61 | -4.68 | -4.52 | – | – | – | – | – | –
Cc1nc2c(n1CCN(C)C)C(=O)c1ccccc1C2=O [Compound 15] | -5.20 | -5.55 | -5.13 | -5.69 | -5.15 | -5.27 | -5.28 | – | -4.98 | -4.92 | -4.93 | -5.35 | -4.92 | cytotoxicity against tumor cells (in words) (human tumor cell lines): comparable to those of compounds 6-14; cytotoxicity log GI50 (HCT-15): -4.89 M; cytotoxicity log GI50 (SK-MEL-2): -4.91 M; cytotoxicity log GI50 (SR): -4.93 M; cytotoxicity log GI50 (NCI-H460): -5.01 M
CCNC1=C(NC(=O)c2ccc(OC)cc2)C(=O)c2ccccc2C1=O [Compound 49] | – | -4.67 | -4.46 | – | -4.62 | -4.51 | – | -4.44 | -4.63 | -4.40 | -4.67 | -4.43 | -4.36 | cytotoxicity log GI50 (RXF-393): -4.55 M; cytotoxicity log GI50 (OVCAR-4): -4.46 M; cytotoxicity log GI50 (PC-3): -4.48 M; cytotoxicity log GI50 (HCC-2998): -4.43 M; cytotoxicity log GI50 (MCF7/ADR-RES): -4.54 M; cytotoxicity log GI50 (MDA-N): -4.43 M; cytotoxicity log GI50 (MOLT-4): -4.44 M; cytotoxicity log GI50 (UACC-257): -4.71 M; cytotoxicity log GI50 (MDA-MB-435): -4.77 M; cytotoxicity log GI50 (SW 620): -4.36 M; cytotoxicity log GI50 (OVCAR-8): -4.61 M
